According to article PMC8500670, “A selective WDR5 degrader inhibits acute myeloid leukemia in patient-derived mouse models” (Science translational medicine, 2021):

Columns and labels:
Test in all cases: biochemical
Parameters in all cases: protein methyltransferase inhibition panel, single concentration, duplicate
[1] = target: PRMT3 (Homo sapiens, UniProt O60678)
Method: (§1) We next assessed selectivity of MS67 against 22 protein methyltransferases (table S2) and a broad panel of common drug targets including 45 kinases (table S3) and 44 G protein–coupled receptors (GPCR), ion channels, and transporters (table S4). […] We subsequently determined that MS67 had moderate binding affinity (Ki = 1.0 ± 0.8 μM) to Sigma 2 receptor (fig. S10).

[2] = target: T1, NSD3 (Homo sapiens, UniProt Q9BZ95)
T1 sequence (Q9BZ95 1-1437): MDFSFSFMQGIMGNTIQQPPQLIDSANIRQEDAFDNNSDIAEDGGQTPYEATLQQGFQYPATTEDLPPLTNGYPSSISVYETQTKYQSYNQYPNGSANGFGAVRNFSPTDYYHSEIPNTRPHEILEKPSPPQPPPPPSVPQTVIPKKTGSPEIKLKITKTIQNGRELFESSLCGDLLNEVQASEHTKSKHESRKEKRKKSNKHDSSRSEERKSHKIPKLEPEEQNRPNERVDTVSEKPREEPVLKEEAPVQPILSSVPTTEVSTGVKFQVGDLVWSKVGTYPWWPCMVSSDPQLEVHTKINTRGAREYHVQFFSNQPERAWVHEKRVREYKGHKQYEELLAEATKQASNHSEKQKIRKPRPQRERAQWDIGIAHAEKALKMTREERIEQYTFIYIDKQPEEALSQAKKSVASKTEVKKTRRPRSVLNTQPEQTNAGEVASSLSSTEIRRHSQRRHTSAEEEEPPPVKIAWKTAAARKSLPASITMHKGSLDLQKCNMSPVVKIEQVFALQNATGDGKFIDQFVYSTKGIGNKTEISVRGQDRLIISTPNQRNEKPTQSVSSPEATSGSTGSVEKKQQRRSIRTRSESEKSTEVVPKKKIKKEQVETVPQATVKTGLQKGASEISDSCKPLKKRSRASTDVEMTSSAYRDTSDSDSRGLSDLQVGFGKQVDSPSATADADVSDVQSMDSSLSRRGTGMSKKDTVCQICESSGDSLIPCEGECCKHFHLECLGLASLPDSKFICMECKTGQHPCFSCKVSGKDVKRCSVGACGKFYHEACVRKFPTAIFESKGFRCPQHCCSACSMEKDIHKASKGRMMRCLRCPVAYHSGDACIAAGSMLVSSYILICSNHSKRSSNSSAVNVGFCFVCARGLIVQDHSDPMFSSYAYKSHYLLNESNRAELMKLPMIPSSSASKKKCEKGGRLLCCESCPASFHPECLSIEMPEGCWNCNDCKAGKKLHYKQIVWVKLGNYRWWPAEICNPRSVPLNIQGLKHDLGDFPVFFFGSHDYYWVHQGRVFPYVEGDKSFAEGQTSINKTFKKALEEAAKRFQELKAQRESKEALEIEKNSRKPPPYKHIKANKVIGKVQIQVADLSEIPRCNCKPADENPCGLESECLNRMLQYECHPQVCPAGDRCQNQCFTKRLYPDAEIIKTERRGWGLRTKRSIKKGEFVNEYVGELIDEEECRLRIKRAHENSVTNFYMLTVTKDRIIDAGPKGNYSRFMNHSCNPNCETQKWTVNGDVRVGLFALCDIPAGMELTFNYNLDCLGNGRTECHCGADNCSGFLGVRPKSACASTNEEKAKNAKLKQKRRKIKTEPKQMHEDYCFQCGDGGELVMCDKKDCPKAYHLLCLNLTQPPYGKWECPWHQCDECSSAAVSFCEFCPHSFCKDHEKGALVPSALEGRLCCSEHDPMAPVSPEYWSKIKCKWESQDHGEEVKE
Method: as §1

[3] = target: T2, NSD2 (Homo sapiens, UniProt O96028)
T2 sequence (O96028 1-1365): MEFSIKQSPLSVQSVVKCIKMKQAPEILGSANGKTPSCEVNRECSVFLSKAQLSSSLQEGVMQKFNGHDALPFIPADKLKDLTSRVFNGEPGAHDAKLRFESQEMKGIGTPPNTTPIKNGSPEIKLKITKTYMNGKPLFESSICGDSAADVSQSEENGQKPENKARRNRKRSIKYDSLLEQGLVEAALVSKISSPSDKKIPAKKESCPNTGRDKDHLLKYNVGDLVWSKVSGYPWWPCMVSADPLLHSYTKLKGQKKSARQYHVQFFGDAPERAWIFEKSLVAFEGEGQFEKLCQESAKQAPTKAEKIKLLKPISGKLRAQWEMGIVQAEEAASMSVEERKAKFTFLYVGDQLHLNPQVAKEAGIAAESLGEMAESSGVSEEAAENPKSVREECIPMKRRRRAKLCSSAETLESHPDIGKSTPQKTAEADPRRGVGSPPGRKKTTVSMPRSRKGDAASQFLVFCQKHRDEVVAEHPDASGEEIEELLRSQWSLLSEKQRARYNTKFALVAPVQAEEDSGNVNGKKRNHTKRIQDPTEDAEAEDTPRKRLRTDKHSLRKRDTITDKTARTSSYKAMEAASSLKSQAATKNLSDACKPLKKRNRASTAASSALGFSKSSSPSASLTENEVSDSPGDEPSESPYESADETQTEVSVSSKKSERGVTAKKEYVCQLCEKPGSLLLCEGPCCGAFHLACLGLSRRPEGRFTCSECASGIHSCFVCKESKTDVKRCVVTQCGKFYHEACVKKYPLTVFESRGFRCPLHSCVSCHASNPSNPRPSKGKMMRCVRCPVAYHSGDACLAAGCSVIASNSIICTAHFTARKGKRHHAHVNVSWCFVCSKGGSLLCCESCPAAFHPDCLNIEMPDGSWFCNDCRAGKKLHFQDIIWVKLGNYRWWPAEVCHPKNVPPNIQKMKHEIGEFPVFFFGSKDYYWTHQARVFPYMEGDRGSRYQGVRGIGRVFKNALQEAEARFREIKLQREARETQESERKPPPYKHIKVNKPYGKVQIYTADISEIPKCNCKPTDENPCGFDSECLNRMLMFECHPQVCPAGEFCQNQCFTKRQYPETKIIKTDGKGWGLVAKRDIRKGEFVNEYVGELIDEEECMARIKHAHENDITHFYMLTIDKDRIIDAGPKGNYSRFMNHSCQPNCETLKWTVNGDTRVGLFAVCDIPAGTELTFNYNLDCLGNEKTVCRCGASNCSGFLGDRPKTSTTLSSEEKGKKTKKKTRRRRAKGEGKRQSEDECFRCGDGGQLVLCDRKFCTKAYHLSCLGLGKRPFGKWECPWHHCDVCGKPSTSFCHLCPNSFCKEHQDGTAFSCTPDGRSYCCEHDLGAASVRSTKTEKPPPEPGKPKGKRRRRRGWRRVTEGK
Method: as §1

Measured: inhibition at 10 µM

PRMT3, sequence (O60678 whole entry): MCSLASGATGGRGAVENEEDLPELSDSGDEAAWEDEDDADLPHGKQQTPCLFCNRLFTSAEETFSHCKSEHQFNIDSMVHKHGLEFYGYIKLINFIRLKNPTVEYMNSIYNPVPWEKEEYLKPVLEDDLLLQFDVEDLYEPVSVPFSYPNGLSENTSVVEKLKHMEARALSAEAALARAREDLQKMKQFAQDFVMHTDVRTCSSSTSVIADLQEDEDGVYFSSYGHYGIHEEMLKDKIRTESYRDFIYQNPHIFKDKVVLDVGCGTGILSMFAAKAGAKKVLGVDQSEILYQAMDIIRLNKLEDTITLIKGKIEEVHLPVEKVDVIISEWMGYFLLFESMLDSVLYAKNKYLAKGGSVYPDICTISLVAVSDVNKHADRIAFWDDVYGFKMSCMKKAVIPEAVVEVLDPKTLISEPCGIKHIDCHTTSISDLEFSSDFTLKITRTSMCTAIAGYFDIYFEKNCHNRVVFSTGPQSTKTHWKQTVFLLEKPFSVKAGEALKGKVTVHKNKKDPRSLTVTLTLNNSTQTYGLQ

Cc1ncsc1-c1ccc([C@H](C)NC(=O)[C@@H]2C[C@@H](O)CN2C(=O)[C@@H](NC(=O)CNC(=O)c2ccc(F)c(-c3ccc(N4C[C@@H](C)N(C)[C@@H](C)C4)c(NC(=O)c4c[nH]c(=O)cc4C(F)(F)F)c3)c2)C(C)(C)C)cc1 [MS67]
< 10%: all assays above
